Results reported in paper PMC10216605, “Developing In Vitro Models to Define the Role of Direct Mitochondrial Toxicity in Frequently Reported Drug-Induced Rhabdomyolysis” (Biomedicines, 2023).
Read-outs that look alike come from different tables or passages of the source.

What was measured:
L6 cells [1] = assay: Acute metabolic switch assay (cellular ATP content, glucose vs galactose media) in L6 differentiated myotubes; conditions: for Mitotoxicity classification in acute metabolic switch assay: based on IC50-ATPglu vs IC50-ATPgal; for IC50: Rattus norvegicus, L6, 2 h
Protocol: They were then seeded into collagen-coated wells (50 µg/mL in 0.02 M of acetic acid) at a density of 16,000 cells/100 μL/well (96 well plates) and 10,000 cells/100 μL/well (XF 96-well cell culture microplates). The cells were next incubated for 24 h in complete growth medium to promote adherence, after which the growth medium was removed and the cells washed twice with 1× HBSS. The L6 myoblasts were then cultured in differentiation medium consisting of high-glucose DMEM (25 mM) supplemented with L-glutamine (4 mM), sodium pyruvate (1 mM), HEPES (5 mM), and horse serum (2% v/v). Fresh differentiation medium was provided every 48 h for 7 days.
(§1) On the day of the assay, the media on the differentiated myotubes were replaced with either serum-free high-glucose (DMEM, 25 mM of glucose, 4 mM of L-glutamine, 1 mM of sodium pyruvate, and 5 mM of HEPES) or serum-free galactose (DMEM, 10 mM of galactose, 6 mM of L-glutamine, 1 mM of sodium pyruvate, and 5 mM of HEPES) media (100 µL) for 2 h (37 °C, 5% CO2). The glucose and galactose media were removed and replaced with drug-dosing solutions in either glucose or galactose media as appropriate, before incubation (2 h, 37 °C, 5% CO2). […] Vehicle control was included in each experiment.
(§2) The cellular ATP content was measured using a bioluminescence assay kit, alongside the concomitant measurement of protein using a bicinchoninic acid (BCA) assay kit to normalise ATP data to the total protein. Briefly, the cells were lysed using ATP lysis buffer (50 µL/well) and the plate was shaken (5 min). According to the manufacturer’s instructions, 40 µL of ATP reagent was added to each well containing 5 µL of cell lysate in a white 96-well plate. The […] luminescence signal was measured immediately using a plate reader (Varioskan, Thermo Scientific, Schaumburg, IL USA).

HSKMDC = assay: Mitochondrial stress test (Seahorse XFe96 respirometry) in HSKMDC; format: cell-based, human; conditions: acute injection
Protocol: On the day of the assay, for the analysis of the acute injection of the drug on differentiated myotubes, the differentiation media was replaced with 175 µL of unbuffered Seahorse Assay media supplemented with 25 mM of glucose, 4 mM of L-glutamine, 1 mM of sodium pyruvate, and 5 mM of HEPES pre-warmed to 37 °C, then incubated in a CO2 free incubator at 37 °C for 1 h. Alternately, in the pre-treatment strategy, differentiated myotubes were pre-treated with the drug for 5 h in differentiation medium, then transferred to a CO2-free incubator at 37 °C for 1 h. Next, the differentiation media were replaced with 175 µL of unbuffered Seahorse Assay media supplemented with the constituents stated above. Briefly, using the XF^e96 instrument (Seahorse extracellular flux analyser, Agilent Technologies, Santa Clara, CA, USA), the oxygen partial pressure in each well was allowed to reach equilibrium for 10 min. The oxygen consumption rate (OCR) was measured three times at baseline; then, there was a 3 min mix for each measurement followed by a 3 min wait. […] In the acute injection method, the drug injection was only performed at the end of the basal measurement cycles, followed by the mitochondrial inhibitors described above. The duration of the assay was 120 min (acute injection) and 90 min (pre-treatment strategy). From each mitochondrial stress test was determined the OCR parameters of non-mitochondrial respiration (NMR = lowest measurement after rotenone/antimycin A); basal respiration (BR = last measurement before oligomycin − NMR); proton-leak (PL = BR − lowest respiration after oligomycin); ATP-linked respiration (ALR = BR − PL); maximum respiratory capacity (MRC = highest measurement after FCCP − NMR); and spare respiratory capacity (SRC = MRC − BR).

L6 cells [2] = conditions: 6 h exposure
Protocol: The mitochondrial stress test allowed confirmation of mitotoxicity and further identification of the specific mechanisms through quantification of OXPHOS parameters: basal respiration (BR), ATP-linked respiration (ALR), and spare respiratory capacity (SRC). On the day of the assay, for the analysis of the acute injection of the drug on differentiated myotubes, the differentiation media was replaced with 175 µL of unbuffered Seahorse Assay media supplemented with 25 mM of glucose, 4 mM of L-glutamine, 1 mM of sodium pyruvate, and 5 mM of HEPES pre-warmed to 37 °C, then incubated in a CO2 free incubator at 37 °C for 1 h. Alternately, in the pre-treatment strategy, differentiated myotubes were pre-treated with the drug for 5 h in differentiation medium, then transferred to a CO2-free incubator at 37 °C for 1 h. Next, the differentiation media were replaced with 175 µL of unbuffered Seahorse Assay media supplemented with the constituents stated above. Briefly, using the XF^e96 instrument (Seahorse extracellular flux analyser, Agilent Technologies, Santa Clara, CA, USA), the oxygen partial pressure in each well was allowed to reach equilibrium for 10 min. The oxygen consumption rate (OCR) was measured three times at baseline; then, there was a 3 min mix for each measurement followed by a 3 min wait. […] In the acute injection method, the drug injection was only performed at the end of the basal measurement cycles, followed by the mitochondrial inhibitors described above. The duration of the assay was 120 min (acute injection) and 90 min (pre-treatment strategy). From each mitochondrial stress test was determined the OCR parameters of non-mitochondrial respiration (NMR = lowest measurement after rotenone/antimycin A); basal respiration (BR = last measurement before oligomycin − NMR); proton-leak (PL = BR − lowest respiration after oligomycin); ATP-linked respiration (ALR = BR − PL); maximum respiratory capacity (MRC = highest measurement after FCCP − NMR); and spare respiratory capacity (SRC = MRC − BR) [42, 43].

[3] = FAERS analysis of reported rhabdomyolysis cases per suspect drug; conditions: for Number of Death Cases (n = 576): monotherapy rhabdomyolysis cases with fatal outcome
Protocol: Due to the quarterly updating of the database by the FDA, the searches were performed using the term “rhabdomyolysis” on one occasion to ensure the data were extracted at that specified period. All individual files were downloaded and saved from this one timepoint to specify the analysis period used in this study. Further refinement was performed using Microsoft Excel to extract only cases where the suspect drug was reported as a monotherapy, using the generic name of the suspect drugs. To ensure data accuracy, any case reported by a consumer or company underwent further checks to ensure it had not been previously reported by a healthcare provider, by confirming that no duplication of case ID was present.

[4] = system: primary human skeletal muscle-derived cells (HSKMDC); assay: cells; format: cell-based; conditions: 2 h exposure; for IC50: Homo sapiens, Myotube, mean ± S.D. (n = 3)
Protocol: (§3) HSKMDC myoblasts were collected by trypsinisation using trypsin-EDTA (0.05%) upon reaching 50% confluence and seeded into collagen-coated wells, at a density of 20,000 cells/100 μL/well (96 well plates) and 25,000 cells/100 μL/well (XF 96-well cell culture microplates). After 24 h, the cells were washed twice with 1× PBS (-/-), and growth media were replaced with differentiation medium containing DMEM low-glucose media (glucose 5 mM), L-glutamine (4 mM), sodium pyruvate (1 mM) supplemented with 2% (v/v) horse serum, and (10 nM) human insulin. The medium was refreshed every 48 h for 5 days.
as §1, §2

[5] = system: primary human skeletal muscle-derived cells (HSKMDC); assay: cells; format: cell-based; conditions: for IC50: Homo sapiens, Myotube, 2 h
Protocol: as §3, §1
Cytotoxicity was detected using a lactate dehydrogenase (LDH) assay kit. Briefly, according to the manufacturers’ instructions, 25 µL of the supernatant and 10 µL of cell lysate were incubated with 50 µL of LDH reagent for 30 min in the dark. Samples were read at 490 nm using a plate reader.

SMILES | Mitotoxicity classification in acute metabolic switch assay (L6 cells [1]; L6 cells, 2 h exposure) | Classification from pattern of changes in BR, ALR and SRC (HSKMDC) | Concentration at which significant reduction of ATP-linked respiration was first observed (HSKMDC) [µM] | Classification from pattern of changes in BR, ALR and SRC (L6 cells [2]) | (%) of total rhabdomyolysis cases ([3]; FAERS 2004 to 31 March 2020, of 27,140 cases) [%] | Number of Rhabdomyolysis Cases ([3]; FAERS 2004 to 31 March 2020, total 27,140 rhabdomyolysis cases, some cases with more than one suspected drug) | Number of Death Cases (n = 576) [3] | (%) of monotherapy rhabdomyolysis cases ([3]; monotherapy, of 6583 cases) [%] | Number of Rhabdomyolysis Cases (n = 6583) ([3]; suspected drug reported as a single drug used (monotherapy), FAERS 2004 to 31 March 2020) | IC50-ATPglu/IC50-ATPgal (L6 cells [1]; L6 cells, 2 h exposure, […]) | IC50 (L6 cells [1]; read-out: ATP IC50 Galactose) [nM] | IC50 (L6 cells [1]; read-out: ATP IC50 Glucose) [nM] | IC50-ATPglu/IC50-ATPgal [4] | IC50-ATPglu/IC50-ATPgal ([4]; listed as rotenone) | IC50 ([4]; galactose serum-free media, read-out: ATP IC50 Galactose) [nM] | IC50 ([4]; glucose serum-free media, read-out: ATP IC50 Glucose) [nM] | IC50-LDH gal/ IC50-ATP al ([5]; HSKMDC, 2 h exposure, galactose media) | IC50 ([5]; read-out: LDH IC50 Galactose) [nM] | IC50 ([5]; read-out: LDH IC50 Glucose) [nM]
CC(C)OC(=O)C(C)(C)Oc1ccc(C(=O)c2ccc(Cl)cc2)cc1 [Fenofibrate] | containing a mitochondrial liability | direct inhibitors of the electron transport chain | 3.6 | direct inhibitors of the electron transport chain | 1.7 | 449 | 6 | 1.9 | 126 |  |  |  |  |  |  |  |  |  | 
Cc1nc2n(c(=O)c1CCN1CCC(c3noc4cc(F)ccc34)CC1)CCCC2 [Risperidone] | containing a mitochondrial liability | direct inhibitors of the electron transport chain | 11 | direct inhibitors of the electron transport chain |  |  | 7 |  |  |  |  |  |  |  |  |  |  |  | 
C=C(C)[C@H]1Cc2c(ccc3c2O[C@@H]2COc4cc(OC)c(OC)cc4[C@@H]2C3=O)O1 [Rotenone] |  |  |  |  |  |  |  |  |  | >138.9 (<0.0001) | 36 ± 8 | > 5000 | >318.4 (<0.0001) | > 318 | 16 ± 7 | > 5000 | >312.5 | > 5000 | > 5000
